Assay results reported in patent publication US10265395B2, “Adjuvant compositions and related methods” (priority 2015, dated 2019).

Legend:
BSA [1] = experiment: ELISA seroconversion to BSA in mice, BSA/adjuvant stability, time 0 and 6 months (Example 4); format: in vivo; conditions: for Normalized: Day 28/29, Table 18 (to BSA only GMT of the same storage temperature); for Geometric Means: Time point 6 Months
BSA [2] = experiment: ELISA seroconversion to BSA in CF-1 mice, BSA/adjuvant stability at 12 months (Example 8); format: in vivo; conditions: 12 Month; for Geometric Mean (ELISA to BSA): adjuvants at 4X, > 20 considered positive
[3] = 6 Month, Day 28/29, S = stored stability sample, F = fresh, storage in the label
[4] = Day 13, mice SC 50 ug BSA/0.1 mL
[5] = Day 28/29, mice SC 50 ug BSA/0.1 mL days 0 and 14
[6] = Time 0, Day 32, mice SC 50 ug BSA/0.1 mL on days 0 and 14, value of 10 used for no seroconversion

| Substance | Incidence (# Mice Seroconverted/# Mice Treated) (BSA [1]; 6 Month, Day 28/29) | Normalized (BSA [1]; 6 Month) | Geometric Mean (ELISA to BSA) (BSA [1]; [3]) | Incidence (BSA [2]; Day 13) | Geometric Mean (ELISA to BSA) (BSA [2]; [4]) | Incidence (BSA [2]; Day 28/29) | Geometric Mean (ELISA to BSA) (BSA [2]; [5]) | Incidence (# Mice Seroconverted/# Mice Treated) (BSA [1]; Time 0, Day 32) | Geometric Mean (ELISA to BSA) (BSA [1]; [6]) | Geometric Means (BSA [1]; Fresh) | Geometric Means (BSA [1]; Stability Ambient - Storage (18-27° C.)) | Geometric Means (BSA [1]; Stability Cold - Storage (2-7° C.)) | Normalized (Geomean BSA/Adj06 ÷ Geomean BSA/PBS) (BSA [1]; Time 0, Day 32) |
| --- | --- | --- | --- | --- | --- | --- | --- | --- | --- | --- | --- | --- | --- |
| S-BSA/RT | 8/10 | 1 | 243 | 5/10 | 25 | 7/10 | 184 | – | – | – | – | – | – |
| BSA/PBS | – | – | – | – | – | – | – | 8/10 | 290 | 98 | 243 | 149 | – |
| S-BSA/2-7° C. | 8/10 | 1 | 149 | 2/9 | 15 | 5/10 | 86 | 8/10 | 290 | – | – | – | 1 |
| F-BSA | 6/10 | – | 98 | 5/9 | 20 | 7/10 | 149 | – | – | – | – | – | – |
